In patent publication US12312599B2, “Methods, compositions, and kits for producing beige adipocytes and treating metabolic disorders” (MaineHealth, priority 2018, dated 2025):

Experiment: Activity of Y-27632 stock solutions
Format: physicochemical
Settings: water based versus DMSO stock
Method: Note: Only use Y-27632 stock solutions that have been resuspended in DMSO. […] Conduct Mesoderm induction of iPSC in a laminar flow cabinet. • 3. Expand cells in NutriStem hPSC XF Medium overnight and change 100% of the medium without Y-27632 every 24 hours in a laminar flow cabinet for cell culture. When changing media, tilt plate up and allow media to pool at the bottom of wells. Aspirate the pooled medium without touching the surface of the plate. Replace with medium warmed to room temperature by pipetting 2 ml down the side of the wells. Cell Passaging • 1. Expand cell colonies until they have reached 70-80% confluence in high-density areas of the wells. High-density accumulation can occur along the edges of the well as well as the middle. Cells permitted to reach high density will lose their potential for differentiation after multiple passages. • 2. Prior to cell passage, warm cell wash buffer and NutriStem hPSC XF Medium to room temperature. Conduct cell passage in a laminar flow cabinet. • 3. Aspirate NutriStem hPSC XF Medium from wells with vacuum aspirator and wash with PBS without calcium or magnesium. Remove PBS and add 1 ml of ReLeSR reagent to side of well. Agitate plate to allow ReLeSR reagent to spread evenly on the surface. • 4. Aspirate ReLeSR reagent with vacuum aspirator after 30 seconds, which will leave behind a thin film of liquid. […]

inhibitor activity of water based stock solutions: lose significant inhibitor activity
Structure (SMILES): C[C@@H](N)[C@H]1CC[C@H](C(=O)Nc2ccncc2)CC1 [Y-27632]
